According to ChEMBL document CHEMBL3885881, “DrugMatrix”:

Species on record: Rattus norvegicus
Assay: DrugMatrix - Regimen: Daily Repeat
Assay type: toxicity, organism-based, Sprague-Dawley
Parameters: regimen Daily Repeat, gender Male, age 6-8 weeks
Details: in vivo, po, route oral GAVAGE, vehicle .5 % CMC; for BASOPHIL / EOSINOPHIL / ERYTHROCYTE COUNT / HEMATOCRIT / HEMOGLOBIN / LEUKOCYTE COUNT / LYMPHOCYTE / MEAN CORPUSCULAR HEMOGLOBIN / MEAN CORPUSCULAR HEMOGLOBIN CONCENTRATION / MEAN CORPUSCULAR VOLUME / MONOCYTE / NEUTROPHIL / PLATELET COUNT: tissue Blood; for ALANINE AMINOTRANSFERASE / ALBUMIN / ALKALINE PHOSPHATASE / ASPARTATE AMINOTRANSFERASE / BLOOD UREA NITROGEN / CHLORIDE / CHOLESTEROL / CREATINE PHOSPHOKINASE / CREATININE / GLUCOSE / PHOSPHORUS / POTASSIUM / SODIUM / TOTAL PROTEIN: tissue Plasma
[1] = 0 mg/kg, 72 h, dose level Control, time 3 day
[2] = 0 mg/kg, 120 h, dose level Control, time 5 day
[3] = 80 mg/kg, 72 h, dose level Low, time 3 day
[4] = 80 mg/kg, 120 h, dose level Low, time 5 day
[5] = 2000 mg/kg, 72 h, dose level High, time 3 day
[6] = 2000 mg/kg, 120 h, dose level High, time 5 day

CN(C/C=C/C#CC(C)(C)C)Cc1cccc2ccccc12 [TERBINAFINE]
BASOPHIL [1]: 0%
EOSINOPHIL [1]: 0.4%
ERYTHROCYTE COUNT [1]: 6.43 x10E6/uL
HEMATOCRIT [1]: 37.36%
HEMOGLOBIN [1]: 13.98 G/DL
LEUKOCYTE COUNT [1]: 13 x10E3/uL
LYMPHOCYTE [1]: 81.4%
MEAN CORPUSCULAR HEMOGLOBIN [1]: 21.9 pg
MEAN CORPUSCULAR HEMOGLOBIN CONCENTRATION [1]: 37.4 G/DL
MEAN CORPUSCULAR VOLUME [1]: 58.52 fL
MONOCYTE [1]: 0.4%
NEUTROPHIL [1]: 18%
PLATELET COUNT [1]: 1386 x10E3/uL
ALANINE AMINOTRANSFERASE [1]: 39.33 u/L
ALBUMIN [1]: 3.57 G/DL
ALKALINE PHOSPHATASE [1]: 283.83 u/L
ASPARTATE AMINOTRANSFERASE [1]: 69.5 u/L
BLOOD UREA NITROGEN [1]: 14.83 mg/dL
CHLORIDE [1]: 107.33 MEQ/L
CHOLESTEROL [1]: 75.17 mg/dL
CREATINE PHOSPHOKINASE [1]: 107.67 u/L
CREATININE [1]: 0.48 mg/dL
GLUCOSE [1]: 172.5 mg/dL
PHOSPHORUS [1]: 10.48 mg/dL
POTASSIUM [1]: 6.9 MEQ/L
SODIUM [1]: 152.33 MEQ/L
TOTAL PROTEIN [1]: 5.9 G/DL
BASOPHIL [2]: 0%
EOSINOPHIL [2]: 0.4%
ERYTHROCYTE COUNT [2]: 6.96 x10E6/uL
HEMATOCRIT [2]: 41.12%
HEMOGLOBIN [2]: 15.24 G/DL
LEUKOCYTE COUNT [2]: 11.06 x10E3/uL
LYMPHOCYTE [2]: 88.6%
MEAN CORPUSCULAR HEMOGLOBIN [2]: 21.96 pg
MEAN CORPUSCULAR HEMOGLOBIN CONCENTRATION [2]: 37.1 G/DL
MEAN CORPUSCULAR VOLUME [2]: 59.12 fL
MONOCYTE [2]: 0.2%
NEUTROPHIL [2]: 10.8%
PLATELET COUNT [2]: 1155.8 x10E3/uL
ALANINE AMINOTRANSFERASE [2]: 36.33 u/L
ALBUMIN [2]: 3.72 G/DL
ALKALINE PHOSPHATASE [2]: 340.33 u/L
ASPARTATE AMINOTRANSFERASE [2]: 68.33 u/L
BLOOD UREA NITROGEN [2]: 15 mg/dL
CHLORIDE [2]: 108.17 MEQ/L
CHOLESTEROL [2]: 74.67 mg/dL
CREATINE PHOSPHOKINASE [2]: 110.67 u/L
CREATININE [2]: 0.47 mg/dL
GLUCOSE [2]: 171.33 mg/dL
PHOSPHORUS [2]: 10.05 mg/dL
POTASSIUM [2]: 6.7 MEQ/L
SODIUM [2]: 155.5 MEQ/L
TOTAL PROTEIN [2]: 6.33 G/DL
BASOPHIL [3]: 0%
EOSINOPHIL [3]: 0.33%
ERYTHROCYTE COUNT [3]: 6.8 x10E6/uL
HEMATOCRIT [3]: 41.03%
HEMOGLOBIN [3]: 15.13 G/DL
LEUKOCYTE COUNT [3]: 14.73 x10E3/uL
LYMPHOCYTE [3]: 86.67%
MEAN CORPUSCULAR HEMOGLOBIN [3]: 22.37 pg
MEAN CORPUSCULAR HEMOGLOBIN CONCENTRATION [3]: 36.9 G/DL
MEAN CORPUSCULAR VOLUME [3]: 60.57 fL
MONOCYTE [3]: 0.33%
NEUTROPHIL [3]: 12.67%
PLATELET COUNT [3]: 1306.67 x10E3/uL
ALANINE AMINOTRANSFERASE [3]: 36 u/L
ALBUMIN [3]: 3.5 G/DL
ALKALINE PHOSPHATASE [3]: 332 u/L
ASPARTATE AMINOTRANSFERASE [3]: 55.67 u/L
BLOOD UREA NITROGEN [3]: 12.67 mg/dL
CHLORIDE [3]: 110.33 MEQ/L
CHOLESTEROL [3]: 64 mg/dL
CREATINE PHOSPHOKINASE [3]: 119.33 u/L
CREATININE [3]: 0.57 mg/dL
GLUCOSE [3]: 180.67 mg/dL
PHOSPHORUS [3]: 10.6 mg/dL
POTASSIUM [3]: 7.07 MEQ/L
SODIUM [3]: 155.67 MEQ/L
TOTAL PROTEIN [3]: 5.87 G/DL
BASOPHIL [4]: 0%
EOSINOPHIL [4]: 0.33%
ERYTHROCYTE COUNT [4]: 5.98 x10E6/uL
HEMATOCRIT [4]: 35.23%
HEMOGLOBIN [4]: 12.83 G/DL
LEUKOCYTE COUNT [4]: 13.7 x10E3/uL
LYMPHOCYTE [4]: 85.33%
MEAN CORPUSCULAR HEMOGLOBIN [4]: 21.47 pg
MEAN CORPUSCULAR HEMOGLOBIN CONCENTRATION [4]: 36.4 G/DL
MEAN CORPUSCULAR VOLUME [4]: 58.97 fL
MONOCYTE [4]: 0%
NEUTROPHIL [4]: 14%
PLATELET COUNT [4]: 1155 x10E3/uL
ALANINE AMINOTRANSFERASE [4]: 39 u/L
ALBUMIN [4]: 3.43 G/DL
ALKALINE PHOSPHATASE [4]: 357.33 u/L
ASPARTATE AMINOTRANSFERASE [4]: 60.33 u/L
BLOOD UREA NITROGEN [4]: 13.33 mg/dL
CHLORIDE [4]: 106.67 MEQ/L
CHOLESTEROL [4]: 67.33 mg/dL
CREATINE PHOSPHOKINASE [4]: 121.67 u/L
CREATININE [4]: 0.47 mg/dL
GLUCOSE [4]: 151.33 mg/dL
PHOSPHORUS [4]: 9.77 mg/dL
POTASSIUM [4]: 6.7 MEQ/L
SODIUM [4]: 151.33 MEQ/L
TOTAL PROTEIN [4]: 5.73 G/DL
BASOPHIL [5]: 0%
EOSINOPHIL [5]: 0%
ERYTHROCYTE COUNT [5]: 6.96 x10E6/uL
HEMATOCRIT [5]: 41.1%
HEMOGLOBIN [5]: 15.27 G/DL
LEUKOCYTE COUNT [5]: 8.67 x10E3/uL
LYMPHOCYTE [5]: 76.67%
MEAN CORPUSCULAR HEMOGLOBIN [5]: 21.9 pg
MEAN CORPUSCULAR HEMOGLOBIN CONCENTRATION [5]: 37.13 G/DL
MEAN CORPUSCULAR VOLUME [5]: 58.93 fL
MONOCYTE [5]: 0%
NEUTROPHIL [5]: 23.33%
PLATELET COUNT [5]: 1235.33 x10E3/uL
ALANINE AMINOTRANSFERASE [5]: 55.67 u/L
ALBUMIN [5]: 3.63 G/DL
ALKALINE PHOSPHATASE [5]: 246.33 u/L
ASPARTATE AMINOTRANSFERASE [5]: 120.33 u/L
BLOOD UREA NITROGEN [5]: 11.33 mg/dL
CHLORIDE [5]: 108.67 MEQ/L
CHOLESTEROL [5]: 105.33 mg/dL
CREATINE PHOSPHOKINASE [5]: 122 u/L
CREATININE [5]: 0.5 mg/dL
GLUCOSE [5]: 140.67 mg/dL
PHOSPHORUS [5]: 10.4 mg/dL
POTASSIUM [5]: 6.3 MEQ/L
SODIUM [5]: 156.33 MEQ/L
TOTAL PROTEIN [5]: 5.9 G/DL
BASOPHIL [6]: 0%
EOSINOPHIL [6]: 0.33%
ERYTHROCYTE COUNT [6]: 6.14 x10E6/uL
HEMATOCRIT [6]: 37.1%
HEMOGLOBIN [6]: 13.7 G/DL
LEUKOCYTE COUNT [6]: 6.8 x10E3/uL
LYMPHOCYTE [6]: 87.33%
MEAN CORPUSCULAR HEMOGLOBIN [6]: 22.37 pg
MEAN CORPUSCULAR HEMOGLOBIN CONCENTRATION [6]: 36.9 G/DL
MEAN CORPUSCULAR VOLUME [6]: 60.57 fL
MONOCYTE [6]: 0%
NEUTROPHIL [6]: 12.33%
PLATELET COUNT [6]: 1319.67 x10E3/uL
ALANINE AMINOTRANSFERASE [6]: 37.67 u/L
ALBUMIN [6]: 3.6 G/DL
ALKALINE PHOSPHATASE [6]: 327.67 u/L
ASPARTATE AMINOTRANSFERASE [6]: 56 u/L
BLOOD UREA NITROGEN [6]: 12 mg/dL
CHLORIDE [6]: 106.33 MEQ/L
CHOLESTEROL [6]: 84.67 mg/dL
CREATINE PHOSPHOKINASE [6]: 117.33 u/L
CREATININE [6]: 0.53 mg/dL
GLUCOSE [6]: 141 mg/dL
PHOSPHORUS [6]: 10.63 mg/dL
POTASSIUM [6]: 6.4 MEQ/L
SODIUM [6]: 152 MEQ/L
TOTAL PROTEIN [6]: 5.73 G/DL
